Measurements published in PMC5177912, “Glycosides from edible sea cucumbers stimulate macrophages via purinergic receptors” (Scientific Reports, 2016).
pKd: −log10 of the molar value. Counter-ions that a name gives are not always drawn.

Target: T1, P2X4 receptor (recombinant mouse P2X4 purinoceptor) (Mus musculus, UniProt Q9JJX6)
T1 construct: gene P2rx4; the complete extracellular domain, N-terminal His-6 tag, expressed in E. coli
T1 sequence (Q9JJX6 55-338): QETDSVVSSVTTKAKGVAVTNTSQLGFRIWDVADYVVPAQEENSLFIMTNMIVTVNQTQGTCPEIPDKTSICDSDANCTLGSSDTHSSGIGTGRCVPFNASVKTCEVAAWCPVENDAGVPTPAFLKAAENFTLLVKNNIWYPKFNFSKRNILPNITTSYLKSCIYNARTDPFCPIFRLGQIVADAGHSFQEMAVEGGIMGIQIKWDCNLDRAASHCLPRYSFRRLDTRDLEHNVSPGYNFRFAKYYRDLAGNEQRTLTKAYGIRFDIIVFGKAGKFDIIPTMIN
Test: SPR (Biacore T200, P2X4 immobilized on CM5 chip)
Format: binding

`C=C(C)CCC[C@]1(C)OC(=O)[C@]23CCC4C(=CC[C@H]5C(C)(C)[C@@H](O[C@@H]6OC[C@@H](OS(=O)(=O)O)[C@H](O)[C@H]6O[C@@H]6O[C@H](C)[C@@H](O[C@@H]7O[C@H](CO)[C@@H](O)[C@H](O[C@@H]8O[C@H](CO)[C@@H](O)[C@H](OC)[C@H]8O)[C@H]7O)[C@H](O)[C@H]6O[C@@H]6OC[C@@H](O)[C@H](O)[C@H]6O)CC[C@]45C)[C@]2(C)CC(=O)[C@@H]31` (stereo partly drawn) [CA2-2, 3-O-{3-O-methyl-β-D-glucopyranosyl-(1→3)-β-D-glucopyranosyl-(1→4)-[β-D-xylopyranosyl-(1→2)]-β-D-quinovopyranosyl-(1→2)−4-O-sodium sulfate-β-D-xylopyranosyl}−16-keto-holosta-7,25-diene] gave a pKd of 4.34.
